Measurements: US5034544A, “Antiviral 2,3-bis-(aryl)-3-chloropropenal compounds” (priority 1989, dated 1991)
“And” between values parts separate entries of the source, which are not always exact repeats. Equal entries are not always repeated. Where two headings read alike, the source gives them in different places.

Legend:
[1] = test system: T4 lymphocytes (CEM cell line); test: in-vitro growth inhibition / cytotoxicity in noninfected T4 lymphocytes (UNINFECTED CULTURE); assay type: cell-based; conditions: for cytotoxicity to uninfected cells (in words): visual / microscopic; for IC50: Homo sapiens, CCRF-CEM, uninfected CEM cells; for Response (%), uninfected culture (surviving uninfected cells, % of uninfected untreated control): 6 days, Tables 1-3 = separate experiments, 8640 min
Experimental: (§1) The assay basically involves the killing of T4 lymphocytes by HIV in cell cultures. Small amounts of HIV are added to cells, and at least two complete cycles of virus reproduction are necessary to obtain the required killing. Agents which interact with virions, cells, or virus gene-products to interfere with viral activities will protect cells from cytolysis. All tests are compared with a positive control done at the same time under identical conditions. The positive control in these experiments was AZT.
(§2) Harvest experiments were conducted in which HIV infected cell cultures were post-treated with the compound of Example 1 at a number of concentrations. T4 lymphocytes (CEM cell line) are exposed to HIV at a virus to cell ratio approximately 0.05, and plated along with noninfected control cells in 96-well microtiter plates. 2,3-Bis-(3,4-dimethoxyphenyl)-3-chloropropenal was dissolved in dimethyl sulfoxide, then diluted 1:200 in cell culture medium. Further dilutions (half-log10) are prepared before adding to an equal volume of medium containing either infected or noninfected cells. Plates are incubated at 37° C. in a 5% carbon dioxide atmosphere for 6 days. Triphenyl tetrazolium chloride (1% weight by volume) is added to each well and cultures are further incubated to allow color development of viable cells. Individual wells are analyzed spectrophotometrically to quantitate color production and are viewed microscopically for detection of viable cells and confirmation of protective activity. Drug-treated virus-infected cells are compared with drug-treated noninfected cells and other appropriate controls (untreated infected and untreated noninfected cells, drug-containing wells without cells, etc.) on the same plate. Data are reviewed in comparison with other tests done at the same time, and a determination about antiviral activity is made.
(§3) The solid line connecting the diamond symbols depicts the percentage of surviving HIV-infected cells treated with the present test sample at the indicated concentration relative to uninfected, untreated controls. This line represents the in-vitro anti-HIV activity of the sample. The dashed line connecting the square symbols depicts the percentage of surviving uninfected cells treated with the present compound relative to the same uninfected, untreated controls. This line represents the in-vitro growth inhibitory properties. The viral cytopathic effect in this experiment is indicated by a dotted reference line. This line show the extent of destruction of cells by the virus in the absence of treatment and is used as a quality control parameter. Values of this parameter […] 50% are considered acceptable in the current protocol. Reference line at 50% is depicted as alternating dots and dashes.
(§4) Also, every attempt was made to reduce variability in the assay procedure set forth hereinabove and the values for EC50, IC50 and Therapeutic Index (TI) were determined within experimental limitations.

[2] = test system: human immunodeficiency virus (HIV); test: microbe, parasite or virus in culture
Experimental: as §1, §2, §3

[3] = in-vitro growth inhibition / cytotoxicity in noninfected T4 lymphocytes (UNINFECTED CULTURE); assay type: cell-based; conditions: human, cem cells, 6 days, Table 4, read-out: Response (%), uninfected culture (surviving uninfected cells, % of uninfected untreated control)
Experimental: as §1, §2, §3, §4

[4] = Human immunodeficiency virus 1, CCRF-CEM, in Homo sapiens, 144 h, read-out: Response (%), infected culture (surviving HIV-infected cells, % of uninfected untreated control)

With `Cc1cn([C@H]2C[C@H](N=[N+]=[N-])[C@@H](CO)O2)c(=O)[nH]c1=O` [AZT, azidothymidine, reference compound] the “cytotoxicity to uninfected cells (in words)” value ([1]; uninfected culture) was “exhibited microscopic cytotoxicity to uninfected cells”.
In the case of `COc1ccc(C(Cl)=C(C=O)c2ccc(OC)cc2)cc1` [2,3-di-(4-methoxyphenyl)-3-chloro-acrylaldehyde, reference compound], the “anti-HIV activity in cell culture (in words)” value [2] is reported as “found unacceptable for further preclinical consideration”.
For `O=CC(=C(Cl)c1ccc2c(c1)OCO2)c1ccc2c(c1)OCO2` [Example 3, 2,3-Bis-(3,4-Methylenedioxyphenyl)-3-Chloropropenal], the “anti-HIV activity in cell culture (in words)” value [2] was “produced mixed results under the experimental assay procedure reported hereinabove, the results clearly indicated antiviral activity” and the “antiviral activity relative to 2,3-bis-(3,4-dimethoxyphenyl)-3-chloropropenal (in words)” value [2] was “significantly less than that of the structurally analogous test compound”.
In the case of `COc1ccc(C(Cl)=C(C=O)c2ccc(OC)c(OC)c2)cc1OC` [Example 1, 2,3-Bis-(3,4-Dimethoxyphenyl)-3-Chloropropenal], the viability at 144 h, 230 µM ([3]; dose 2.30 × 10^-4 Molar) is reported as 77.3%, the viability at 144 h, 23.1 µM ([3]; dose 2.31 × 10^-5 Molar) is reported as 90.2% and the viability at 144 h, 2.31 µM ([3]; dose 2.31 × 10^-6 Molar) is reported as 92.7%. The viability at 144 h, 0.231 µM ([3]; dose 2.31 × 10^-7 Molar) was 104%, the viability at 144 h, 73 µM ([3]; dose 7.30 × 10^-5 Molar) was 83.5% and the viability at 144 h, 7.31 µM ([3]; dose 7.31 × 10^-6 Molar) was 94.3%. For the same molecule, the viability at 144 h, 0.732 µM ([3]; dose 7.32 × 10^-7 Molar) was 96.5%, the viability at 144 h, 0.0733 µM ([3]; dose 7.33 × 10^-8 Molar) was 101% and the IC50 ([1]; FIG. 1 / Table 1 experiment, read-out: IC50 (inhibition concentration required for 50% of cell growth)) was > 83.7 µg/mL. For the same molecule, the IC50 ([1]; FIG. 4 / Table 4 experiment, read-out: IC50 (molar value), cell growth) was > 230 µM, the “Response (%), uninfected culture (surviving uninfected cells, % of uninfected untreated control)” value (shortened to “Response (%), uninfected culture”) ([1]; dose 2.64 × 10^+1 μg/ml) was 112.4% and 109.3% and 115.9% and the “Response (%), uninfected culture” value ([1]; dose 2.65 × 10^+0 μg/ml) was 103.5% and 106.3% and 108.3%. For the same molecule, the “Response (%), uninfected culture” value ([1]; dose 2.65 × 10^-1 μg/ml) was 102.7% and 99.7% and 103.4%, the “Response (%), uninfected culture” value ([1]; dose 2.66 × 10^-2 μg/ml) was 99.2% and 104.4% and the “Response (%), uninfected culture” value ([1]; dose 8.37 × 10^+1 μg/ml) was 112.2% and 91.9% and 114.3%. The “Response (%), uninfected culture” value ([1]; dose 8.38 × 10^+0 μg/ml) was 106.0% and 103.1% and 113.1%, the “Response (%), uninfected culture” value ([1]; dose 8.39 × 10^-1 μg/ml) was 105.6% and 101.2% and 107.0% and the “Response (%), uninfected culture” value ([1]; dose 8.40 × 10^-2 μg/ml) was 104.5% and 103.1% and 99.6%. The “cell growth in uninfected culture (in words)” value ([1]; uninfected culture, Tables 1-4) was “cell growth actually increased in most of these test results”, the “cytotoxicity to uninfected cells (in words)” value ([1]; uninfected culture) was “no significant visual or microscopic cytotoxicity was observed in the uninfected culture” and the “selectivity compared to AZT (in words)” value [2] was “pronounced at the reported concentrations”. For the same molecule, the “selectivity, infected vs. uninfected cells (in words)” value [2] was “selective, exhibiting toxicity to infected cells, yet not toxic towards normal cells or cells free of virus”, the viability at 0.0266 µg/mL [2, 4] was 6.9% and the viability at 0.0733 µM [2, 4] was 18.5%. The viability at 0.084 µg/mL [2, 4] was 6.8%, the viability at 0.231 µM [2, 4] was 18% and the viability at 0.265 µg/mL [2, 4] was 5.4%. The viability at 0.266 µg/mL [2, 4] was 8.2%, the viability at 0.732 µM [2, 4] was 18.8% and the viability at 0.839 µg/mL [2, 4] was 7.2%. It also gave a viability at 2.31 µM [2, 4] of 19.9%, a viability at 2.65 µg/mL [2, 4] of 6.6% and a viability at 7.31 µM [2, 4] of 60.2%. It also gave a viability at 23.1 µM [2, 4] of 79.5%, a viability at 26.4 µg/mL [2, 4] of 84.6% and a viability at 73 µM [2, 4] of 76.2%. It also gave a viability at 83.7 µg/mL [2, 4] of 94.8%, a viability at 230 µM [2, 4] of 75.4% and an EC50 ([2]; Human immunodeficiency virus 1, CCRF-CEM, read-out: EC50 (effective kill concentration for 50% of the experimental virus)) of ~15.6 µg/mL. The EC50 ([2]; Human immunodeficiency virus 1, CCRF-CEM, read-out: EC50 (molar value)) was 5.45 µM and the “TI50 (therapeutic index)” value ([2]; human, cem cells, 8640 min) was > 4.22×10^+1.
